Measurements from ChEMBL document CHEMBL4651402, “Screening of ~5500 FDA-approved drugs and clinical candidates for anti-SARS-CoV-2 activity” (2021).

Test system: SARS-CoV-2
Assay: microbe, parasite or virus in culture
Settings: Severe acute respiratory syndrome coronavirus 2, Vero C1008, 48 h

SMILES	IC50	IC50 (read-out: pIC50 (converted))
O=C(Nc1ccc([N+](=O)[O-])cc1Cl)c1cc(Cl)ccc1O [NICLOSAMIDE]	> 20 µM	> 20 µM
O=C(c1cccnc1)N1CCOCC1 [NICOPHOLINE]	> 20 µM	> 20 µM
O=C(NCCO[N+](=O)[O-])c1cccnc1 [NICORANDIL]	> 20 µM	> 20 µM
NC(=O)c1ccc[n+]([C@@H]2O[C@H](CO)[C@@H](O)[C@H]2O)c1 [NICOTINAMIDE RIBOSIDE]	> 20 µM	> 20 µM
CN1CCC[C@H]1c1cccnc1 [NICOTINE]	> 20 µM	> 20 µM
OCc1cccnc1 [NICOTINYL ALCOHOL]	> 20 µM	> 20 µM
COC(=O)C1=C(C)NC(C)=C(C(=O)OC)C1c1ccccc1[N+](=O)[O-] [NIFEDIPINE]	> 20 µM	> 20 µM
Cn1c(NCCN(CCO)CCCc2ccc([N+](=O)[O-])cc2)cc(=O)n(C)c1=O [NIFEKALANT]	> 20 µM	> 20 µM
O=C(O)c1cccnc1Nc1cccc(C(F)(F)F)c1 [NIFLUMIC ACID]	> 20 µM	> 20 µM
O=C(N/N=C/c1ccc([N+](=O)[O-])o1)c1ccc(O)cc1 [NIFUROXAZIDE]	> 20 µM	> 20 µM
Cc1cn(-c2cc(NC(=O)c3ccc(C)c(Nc4nccc(-c5cccnc5)n4)c3)cc(C(F)(F)F)c2)cn1 [NILOTINIB]	> 20 µM	> 20 µM
CC1(C)NC(=O)N(c2ccc([N+](=O)[O-])c(C(F)(F)F)c2)C1=O [NILUTAMIDE]	> 20 µM	> 20 µM
C/C=C/C[C@@H](C)[C@@H](O)[C@H]1C(=O)N[C@@H](CC)C(=O)N(C)CC(=O)N(C)[C@@H]([C@@H](C)CC)C(=O)N[C@@H](C(C)C)C(=O)N(C)[C@@H](CC(C)C)C(=O)N[C@@H](C)C(=O)N[C@H](C)C(=O)N(C)[C@@H](CC(C)C)C(=O)N(C)[C@@H](CC(C)C)C(=O)N(C)[C@@H](C(C)C)C(=O)N1C [NIM811]	> 20 µM	> 20 µM
COCCOC(=O)C1=C(C)NC(C)=C(C(=O)OC(C)C)C1c1cccc([N+](=O)[O-])c1 (configuration not stated) [NIMODIPINE]	> 20 µM	> 20 µM
O=[N+]([O-])c1cncn1CCN1CCOCC1 [NIMORAZOLE]	> 20 µM	> 20 µM
Cc1ncc(CNC(=O)N(CCCl)N=O)c(N)n1 [NIMUSTINE]	> 20 µM	> 20 µM
COC(=O)c1ccc2c(c1)NC(=O)/C2=C(\Nc1ccc(N(C)C(=O)CN2CCN(C)CC2)cc1)c1ccccc1 [NINTEDANIB]	> 20 µM	> 20 µM
O=C1NCCN1c1ncc([N+](=O)[O-])s1 [NIRIDAZOLE]	> 20 µM	> 20 µM
COC(=O)C1=C(C)NC(C)=C(C(=O)OCC(C)C)C1c1ccccc1[N+](=O)[O-] (configuration not stated) [NISOLDIPINE]	> 20 µM	> 20 µM
CNCCC(Oc1ccccc1OC)c1ccccc1 (configuration not stated) [NISOXETINE]	> 20 µM	> 20 µM
CC(=O)Oc1ccccc1C(=O)Nc1ncc([N+](=O)[O-])s1 [NITAZOXANIDE]	> 20 µM	> 20 µM
CC(=O)Nc1ncc([N+](=O)[O-])s1 [NITHIAMIDE]	> 20 µM	> 20 µM
CCn1c(=O)c2ccccc2n(-c2cccc([N+](=O)[O-])c2)c1=O [NITRAQUAZONE]	> 20 µM	> 20 µM
O=C1CN=C(c2ccccc2)c2cc([N+](=O)[O-])ccc2N1 [NITRAZEPAM]	> 20 µM	> 20 µM
CCOC(=O)C1=C(C)NC(C)=C(C(=O)OC)C1c1cccc([N+](=O)[O-])c1 (configuration not stated) [NITRENDIPINE]	> 20 µM	> 20 µM
O=C1CN(/N=C/c2ccc([N+](=O)[O-])o2)C(=O)N1 [NITROFURANTOIN]	> 20 µM	> 20 µM

SMILES	IC50	IC50 (read-out: pIC50 (converted))
NC(=O)N/N=C/c1ccc([N+](=O)[O-])o1 [NITROFURAZONE]	> 20 µM	> 20 µM
O=[N+]([O-])OCC(CO[N+](=O)[O-])O[N+](=O)[O-] [NITROGLYCERIN]	> 20 µM	> 20 µM
NC(=O)c1cc([N+](=O)[O-])cc([N+](=O)[O-])c1 [NITROMIDE]	> 20 µM	> 20 µM
O=[N+]([O-])c1ccc(O)c2ncccc12 [NITROXOLINE]	> 20 µM	> 20 µM
CNC(=C[N+](=O)[O-])NCCSCc1csc(CN(C)C)n1 [NIZATIDINE]	> 20 µM	> 20 µM
Cc1ccc(Cn2c(NC3CCNCC3)nc3cccnc32)o1 [NOBERASTINE]	> 20 µM	> 20 µM
COC(=O)Nc1nc2cc(C(=O)c3cccs3)ccc2[nH]1 [NOCODAZOLE]	> 20 µM	> 20 µM
CC(=O)O[C@]1(C(C)=O)CC[C@H]2[C@@H]3C=C(C)C4=CC(=O)CC[C@@H]4[C@H]3CC[C@@]21C [NOMEGESTROL ACETATE]	> 20 µM	> 20 µM
CCC(OC(C)=O)C(CC(C)NC)(c1ccccc1)c1ccccc1 (configuration not stated) [NORACYMETHADOL]	> 20 µM	> 20 µM
COc1ccc2c3c1O[C@H]1[C@@H](O)C=C[C@H]4[C@@H](C2)NCC[C@@]341 [NORCODEINE]	> 20 µM	> 20 µM
O=C1CN=C(c2ccccc2)c2cc(Cl)ccc2N1 [NORDAZEPAM]	> 20 µM	> 20 µM
NC[C@H](O)c1ccc(O)c(O)c1 [NOREPINEPHRINE]	> 20 µM	> 20 µM
C#C[C@]1(OC(C)=O)CC[C@H]2[C@@H]3CCC4=CC(=O)CC[C@@H]4[C@H]3CC[C@@]21C [NORETHINDRONE ACETATE]	> 20 µM	> 20 µM
C#C[C@]1(O)CC[C@H]2[C@@H]3CCC4=CC(=O)CC[C@@H]4[C@H]3CC[C@@]21C [NORETHINDRONE]	> 20 µM	> 20 µM
C#C[C@]1(O)CC[C@H]2[C@@H]3CCC4=C(CCC(=O)C4)[C@H]3CC[C@@]21C [NORETHYNODREL]	> 20 µM	> 20 µM
NCC(O)c1cccc(O)c1 (configuration not stated) [NORFENEFRINE]	> 20 µM	> 20 µM
CCn1cc(C(=O)O)c(=O)c2cc(F)c(N3CCNCC3)cc21 [NORFLOXACIN]	> 20 µM	> 20 µM
c1ccc2c(c1)[nH]c1cnccc12 [NORHARMANE]	> 20 µM	> 20 µM
CCC(=O)C(CCN(C)C)(c1ccccc1)c1ccccc1 [NORMETHADONE]	> 20 µM	> 20 µM
Oc1ccc2c3c1O[C@H]1[C@@H](O)C=C[C@H]4[C@@H](C2)NCC[C@@]341 [NORMORPHINE]	> 20 µM	> 20 µM
CCC(=O)C(CCN1CCCCC1)(c1ccccc1)c1ccccc1 [NORPIPANONE]	> 20 µM	> 20 µM
CO[C@@H]1[C@@H](OC(N)=O)[C@@H](O)[C@H](Oc2ccc3c(O)c(NC(=O)c4ccc(O)c(CC=C(C)C)c4)c(=O)oc3c2C)OC1(C)C [NOVOBIOCIN]	> 20 µM	> 20 µM
Cc1nnc(C(CCN2CC3CCC2CC3)(c2ccccc2)c2ccccc2)o1 [NUFENOXOLE]	> 20 µM	> 20 µM
CC(CCc1ccccc1)NC(C)C(O)c1ccc(O)cc1 (configuration not stated) [NYLIDRIN]	> 20 µM	> 20 µM
CN(C)C[C@H]1CCCC[C@]1(O)c1cccc(O)c1 [O-DESMETHYL TRAMADOL]	> 100 µM	> 100 µM
